Measured values from PMC4234217 (ChemistryOpen, 2014).

Experiments:
human NTS1 = human NTS1 (Homo sapiens, UniProt P30989); conditions: replacement of Tyr11 by alanine; ref [7]; cited from earlier work
human NTS2 [1] = molecular target: T1, human NTS2 (Homo sapiens, UniProt O95665); conditions: replacement of Tyr11 by alanine; ref [7]; cited from earlier work
human NTS2 [2] = molecular target: T1, human NTS2; assay: Radioligand binding at human NTS2 with [3H]NT; conditions: SEM

T1 sequence (O95665 whole entry): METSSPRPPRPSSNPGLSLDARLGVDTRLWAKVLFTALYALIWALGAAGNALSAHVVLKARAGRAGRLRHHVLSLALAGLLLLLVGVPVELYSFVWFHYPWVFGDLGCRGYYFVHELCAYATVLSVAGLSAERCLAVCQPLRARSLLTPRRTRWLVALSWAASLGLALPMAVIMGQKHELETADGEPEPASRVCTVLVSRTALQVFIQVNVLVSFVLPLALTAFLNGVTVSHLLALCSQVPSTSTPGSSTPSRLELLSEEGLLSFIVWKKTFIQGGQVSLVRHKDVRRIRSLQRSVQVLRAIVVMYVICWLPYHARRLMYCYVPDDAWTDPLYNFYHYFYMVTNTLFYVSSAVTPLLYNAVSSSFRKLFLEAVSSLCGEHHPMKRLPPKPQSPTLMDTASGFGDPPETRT
Chain of human NTS1 (P30989 whole entry): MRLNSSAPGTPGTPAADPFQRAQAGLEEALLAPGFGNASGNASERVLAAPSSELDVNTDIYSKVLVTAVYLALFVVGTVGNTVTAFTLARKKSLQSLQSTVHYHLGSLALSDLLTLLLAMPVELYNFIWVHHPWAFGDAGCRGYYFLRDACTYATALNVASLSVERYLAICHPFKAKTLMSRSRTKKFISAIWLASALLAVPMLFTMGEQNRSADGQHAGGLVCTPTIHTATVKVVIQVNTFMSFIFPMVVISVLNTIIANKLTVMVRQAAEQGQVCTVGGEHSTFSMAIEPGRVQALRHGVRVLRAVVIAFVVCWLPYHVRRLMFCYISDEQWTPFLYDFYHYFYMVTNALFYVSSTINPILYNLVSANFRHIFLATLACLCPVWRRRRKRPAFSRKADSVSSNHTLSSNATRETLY

Compound	reduction of ligand affinity at NTS1 compared to NT(8–13) (human NTS1) [fold]	decrease of affinity towards NTS2 compared to NT(8–13) (human NTS2 [1]) [fold]	Ki (human NTS2 [2]) [µM]
[^11Ala]NT(8–13)	5400	70	
CC[C@H](C)[C@H](NC(=O)CN(CCc1ccn2nccc2c1)C(=O)[C@@H]1CCCN1C(=O)[C@H](CCCNC(=N)N)NC(=O)[C@@H](N)CCCNC(=N)N)C(=O)N[C@@H](CC(C)C)C(=O)O [compound 3, [^11N-{5-(2-Aminoethyl)pyrazolo[1,5-a]pyridine}-Gly]NT(8–13)]			0.52 ± 0.17
